# Test results: BindingDB's records for doi:10.1016/j.ejmech.2018.03.040 (University of Torino, 2018)
# Target: Prostaglandin G/H synthase 2 (COX2, PTGS2) (Homo sapiens) (UniProt P35354)
# Assay: Inhibition of human COX2 assessed as reduction in PGF2alpha production by ELISA
# Sequence of Prostaglandin G/H synthase 2 (COX2, PTGS2) (Homo sapiens) (P35354 whole entry, looked up): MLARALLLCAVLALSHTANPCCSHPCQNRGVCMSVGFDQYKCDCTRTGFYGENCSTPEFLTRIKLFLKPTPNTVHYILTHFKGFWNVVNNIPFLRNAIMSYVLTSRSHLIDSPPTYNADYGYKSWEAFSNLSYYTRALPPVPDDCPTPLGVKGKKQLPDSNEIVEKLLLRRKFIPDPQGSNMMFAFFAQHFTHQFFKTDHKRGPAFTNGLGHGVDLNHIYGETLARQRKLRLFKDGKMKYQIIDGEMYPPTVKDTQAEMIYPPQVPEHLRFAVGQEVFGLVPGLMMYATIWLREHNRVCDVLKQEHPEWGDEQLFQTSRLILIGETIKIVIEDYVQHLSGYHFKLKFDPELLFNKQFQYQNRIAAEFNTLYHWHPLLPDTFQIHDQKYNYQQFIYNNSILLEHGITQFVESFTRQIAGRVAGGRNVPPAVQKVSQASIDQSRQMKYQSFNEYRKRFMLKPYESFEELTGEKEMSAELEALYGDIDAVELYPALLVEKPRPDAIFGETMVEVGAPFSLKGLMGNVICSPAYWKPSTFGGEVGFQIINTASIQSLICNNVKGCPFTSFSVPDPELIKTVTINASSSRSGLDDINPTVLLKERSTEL
row,IC50 [µM],SMILES
1,> 100,Oc1noc2cccc(Nc3cccc(S(F)(F)(F)(F)F)c3)c12
2,> 100,Oc1noc2cccc(Nc3cccc(C(F)(F)F)c3)c12
3,> 100,O=C(Nc1cccc(C(F)(F)F)c1)c1c(O)nnn1Cc1ccc(OC(F)(F)F)cc1
4,> 100,Oc1noc2cccc(Nc3cc(C(F)(F)F)cc(C(F)(F)F)c3)c12
5,> 100,COc1ccc(Cn2nnc(O)c2C(=O)Nc2cccc(C(F)(F)F)c2)cc1OC
6,> 100,Oc1noc2ccc(Nc3cccc(C(F)(F)F)c3)cc12
7,> 100,O=[N+]([O-])c1cccc(Nc2cccc3onc(O)c23)c1
